Measurements as given in PubChem BioAssay AID1918940 (Molecular Pharmacology Branch, DTP, NCI, 2023).

Tested on: NCI-H211 complex spheroid viability
Assay: Anticancer human tumor NCI-H211 cell line growth inhibition [LSD1];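 note: luminescent viability read after seven days of drug exposure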;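 for viability, T/C: 100% = DMSO vehicle control viability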
Conditions: for IC50: curve of first compound; for viability, T/C: stronger effect = lower value
Procedure, shortened: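 Complex spheroids of tumor cells with HUVEC and human MSCs, exposed to iadademstat combined with other agents. Each agent tested in half-log steps from near clinical Cmax (else 10 microM top), DMSO ≤0.25%.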

[1] = second compound 0.1 µM, first compound 0.00949 µM
[2] = second compound 0.1 µM, first compound 0.03 µM
[3] = second compound 0.1 µM, first compound 0.0949 µM
[4] = second compound 0.1 µM, first compound 0.3 µM
[5] = second compound 0.1 µM, first compound 0.949 µM
[6] = second compound 0.1 µM, first compound 3 µM
[7] = second compound 0.316 µM, first compound 0.00949 µM
[8] = second compound 0.316 µM, first compound 0.03 µM
[9] = second compound 0.316 µM, first compound 0.0949 µM
[10] = second compound 0.316 µM, first compound 0.3 µM
[11] = second compound 0.316 µM, first compound 0.949 µM
[12] = second compound 0.316 µM, first compound 3 µM
[13] = second compound 1 µM, first compound 0.00949 µM
[14] = second compound 1 µM, first compound 0.03 µM
[15] = second compound 1 µM, first compound 0.0949 µM
[16] = second compound 1 µM, first compound 0.3 µM
[17] = second compound 1 µM, first compound 0.949 µM
[18] = second compound 1 µM, first compound 3 µM
[19] = second compound 3.16 µM, first compound 0.00949 µM
[20] = second compound 3.16 µM, first compound 0.03 µM
[21] = second compound 3.16 µM, first compound 0.0949 µM
[22] = second compound 3.16 µM, first compound 0.3 µM
[23] = second compound 3.16 µM, first compound 0.949 µM
[24] = second compound 3.16 µM, first compound 3 µM
[25] = second compound 10 µM, first compound 0.00949 µM
[26] = second compound 10 µM, first compound 0.03 µM
[27] = second compound 10 µM, first compound 0.0949 µM
[28] = second compound 10 µM, first compound 0.3 µM
[29] = second compound 10 µM, first compound 0.949 µM
[30] = second compound 10 µM, first compound 3 µM

CC[C@@]1(O)C(=O)OCc2c1cc1n(c2=O)Cc2cc3c(CN(C)C)c(O)ccc3nc2-1 + NC1CC1c1ccc(-c2cccc(O)c2)cc1 was tested, and the IC50 (second compound 0.1 µM) was 0.472 nM, the IC50 (second compound 0.316 µM) was 0.4 nM and the IC50 (second compound 1 µM) was 0.333 nM. The IC50 (second compound 3.16 µM) was < 0.316 nM, the IC50 (second compound 10 µM) was < 0.316 nM and the viability, T/C (second compound 0.1 µM, first compound 0.000316 µM) was 69.9%. It also gave a viability, T/C (second compound 0.1 µM, first compound 0.001 µM) of 12.8%, a viability, T/C (second compound 0.1 µM, first compound 0.00316 µM) of 4.7% and a viability, T/C (second compound 0.1 µM, first compound 0.01 µM) of 4.95%. The viability, T/C (second compound 0.1 µM, first compound 0.0316 µM) was 3.81%, the viability, T/C (second compound 0.1 µM, first compound 0.1 µM) was 2.69% and the viability, T/C (second compound 0.316 µM, first compound 0.000316 µM) was 60%. It also gave a viability, T/C (second compound 0.316 µM, first compound 0.001 µM) of 12%, a viability, T/C (second compound 0.316 µM, first compound 0.00316 µM) of 6.18% and a viability, T/C (second compound 0.316 µM, first compound 0.01 µM) of 4.37%. It also gave a viability, T/C (second compound 0.316 µM, first compound 0.0316 µM) of 4.53%, a viability, T/C (second compound 0.316 µM, first compound 0.1 µM) of 2.25% and a viability, T/C (second compound 1 µM, first compound 0.000316 µM) of 51.9%. The viability, T/C (second compound 1 µM, first compound 0.001 µM) was 11.9%, the viability, T/C (second compound 1 µM, first compound 0.00316 µM) was 5.4% and the viability, T/C (second compound 1 µM, first compound 0.01 µM) was 3.69%. For the same compound, the viability, T/C (second compound 1 µM, first compound 0.0316 µM) was 4.13%, the viability, T/C (second compound 1 µM, first compound 0.1 µM) was 3.19% and the viability, T/C (second compound 3.16 µM, first compound 0.000316 µM) was 38.7%. The viability, T/C (second compound 3.16 µM, first compound 0.001 µM) was 11.8%, the viability, T/C (second compound 3.16 µM, first compound 0.00316 µM) was 5.33% and the viability, T/C (second compound 3.16 µM, first compound 0.01 µM) was 5.16%. It also gave a viability, T/C (second compound 3.16 µM, first compound 0.0316 µM) of 5.02%, a viability, T/C (second compound 3.16 µM, first compound 0.1 µM) of 2.67% and a viability, T/C (second compound 10 µM, first compound 0.000316 µM) of 44.5%. For the same compound, the viability, T/C (second compound 10 µM, first compound 0.001 µM) was 15.3%, the viability, T/C (second compound 10 µM, first compound 0.00316 µM) was 4.98% and the viability, T/C (second compound 10 µM, first compound 0.01 µM) was 5.88%. The viability, T/C (second compound 10 µM, first compound 0.0316 µM) was 5.04% and the viability, T/C (second compound 10 µM, first compound 0.1 µM) was 2.36%.
In the case of COc1cc(C2c3cc4c(cc3C(OC3OC5COC(C)OC5C(O)C3O)C3COC(=O)C23)OCO4)cc(OC)c1O (stereo not given) + NC1CCC(NC2CC2c2ccccc2)CC1, the IC50 (second compound 0.1 µM) is reported as 9.89 nM, the IC50 (second compound 0.316 µM) is reported as 9.92 nM and the IC50 (second compound 1 µM) is reported as < 9.49 nM. For the same compound, the IC50 (second compound 3.16 µM) was < 9.49 nM, the IC50 (second compound 10 µM) was < 9.49 nM and the viability, T/C [1] was 51.4%. The viability, T/C [2] was 14.5%, the viability, T/C [3] was 2.21% and the viability, T/C [4] was 5.34%. The viability, T/C [5] was 1.9%, the viability, T/C [6] was 2.19% and the viability, T/C [7] was 51.7%. The viability, T/C [8] was 12.7%, the viability, T/C [9] was 1.66% and the viability, T/C [10] was 2.34%. The viability, T/C [11] was 2.35%, the viability, T/C [12] was 2.14% and the viability, T/C [13] was 46.1%. The viability, T/C [14] was 11.6%, the viability, T/C [15] was 2.2% and the viability, T/C [16] was 2.36%. For the same compound, the viability, T/C [17] was 2.33%, the viability, T/C [18] was 2.08% and the viability, T/C [19] was 42.2%. The viability, T/C [20] was 10.5%, the viability, T/C [21] was 2.02% and the viability, T/C [22] was 2.37%. For the same compound, the viability, T/C [23] was 1.62%, the viability, T/C [24] was 1.85% and the viability, T/C [25] was 18.9%. It also gave a viability, T/C [26] of 4.24%, a viability, T/C [27] of 0.87% and a viability, T/C [28] of 0.66%. For the same compound, the viability, T/C [29] was 0.79% and the viability, T/C [30] was 0.69%.
With Nc1ccccc1NC(=O)c1ccc(CNC(=O)OCc2cccnc2)cc1 + NC1CCC(NC2CC2c2ccccc2)CC1 the IC50 (second compound 0.1 µM) was 11.9 nM, the IC50 (second compound 0.316 µM) was 13.2 nM and the IC50 (second compound 1 µM) was 9.95 nM. For the same compound, the IC50 (second compound 3.16 µM) was < 9.49 nM, the IC50 (second compound 10 µM) was < 9.49 nM and the viability, T/C [1] was 54.5%. It also gave a viability, T/C [2] of 32.1%, a viability, T/C [3] of 4.58% and a viability, T/C [4] of 1.24%. The viability, T/C [5] was 0.63%, the viability, T/C [6] was 0.12% and the viability, T/C [7] was 55.7%. The viability, T/C [8] was 35.9%, the viability, T/C [9] was 4.66% and the viability, T/C [10] was 1.07%. It also gave a viability, T/C [11] of 0.8%, a viability, T/C [12] of 0.15% and a viability, T/C [13] of 51%. The viability, T/C [14] was 27.2%, the viability, T/C [15] was 3.65% and the viability, T/C [16] was 0.99%. It also gave a viability, T/C [17] of 0.68%, a viability, T/C [18] of 0.11% and a viability, T/C [19] of 38%. For the same compound, the viability, T/C [20] was 20.3%, the viability, T/C [21] was 3.37% and the viability, T/C [22] was 0.53%. It also gave a viability, T/C [23] of 0.39%, a viability, T/C [24] of 0.12% and a viability, T/C [25] of 29.4%. For the same compound, the viability, T/C [26] was 6.92%, the viability, T/C [27] was 1% and the viability, T/C [28] was 0.3%. For the same compound, the viability, T/C [29] was 0.22% and the viability, T/C [30] was 5.88%.
With NS(=O)(=O)OCC1CC(n2ccc3c(NC4CCc5ccccc54)ncnc32)CC1O (stereo not given) + NC1CC1c1ccc(-c2cccc(O)c2)cc1 the IC50 (second compound 0.1 µM) was < 9.49 nM, the IC50 (second compound 0.316 µM) was < 9.49 nM and the IC50 (second compound 1 µM) was < 9.49 nM. For the same compound, the IC50 (second compound 3.16 µM) was < 9.49 nM, the IC50 (second compound 10 µM) was < 9.49 nM and the viability, T/C [1] was 21.2%. For the same compound, the viability, T/C [2] was 9.36%, the viability, T/C [3] was 4.3% and the viability, T/C [4] was 1.71%. The viability, T/C [5] was 1.1%, the viability, T/C [6] was 0.94% and the viability, T/C [7] was 20.3%. For the same compound, the viability, T/C [8] was 13.6%, the viability, T/C [9] was 2.93% and the viability, T/C [10] was 1.2%. It also gave a viability, T/C [11] of 1.09%, a viability, T/C [12] of 0.81% and a viability, T/C [13] of 20.4%. For the same compound, the viability, T/C [14] was 10.4%, the viability, T/C [15] was 3.57% and the viability, T/C [16] was 1.64%. For the same compound, the viability, T/C [17] was 1.11%, the viability, T/C [18] was 0.79% and the viability, T/C [19] was 26.8%. It also gave a viability, T/C [20] of 13.2%, a viability, T/C [21] of 5.17% and a viability, T/C [22] of 2.04%. It also gave a viability, T/C [23] of 0.97%, a viability, T/C [24] of 0.81% and a viability, T/C [25] of 27.4%. For the same compound, the viability, T/C [26] was 12%, the viability, T/C [27] was 5.24% and the viability, T/C [28] was 1.75%. For the same compound, the viability, T/C [29] was 0.61% and the viability, T/C [30] was 0.57%.
